Assay results from US8999375B2, “Compositions including pyruvate for companion animals and methods of use thereof” (Hill's Pet Nutrition, Inc., priority 2009, dated 2015).

Tested on: arthritic and normal cats
Test: Feline arthritis biomarker measurements in arthritic and normal cats
Format: in vivo
Settings: 1% by weight in diet, 28 days
Protocol: Calcium pyruvate was tested in arthritic and normal cats to determine efficacy in reducing cartilage damage and inflammatory markers. Ten normal and ten arthritis cats were fed the feline control diet enhanced with 1% by weight calcium pyruvate for 28 days. Analysis was performed on natural log transformed values. Means and SED are antilog values of log transformed data.

calcium pyruvate
concentration of serum HMGB1 (in words): reduced | concentration of serum IL-1 beta (in words): reduced | marker of bone formation, BAP (in words): improved
